Data on 31 compounds can be found in ChEMBL document CHEMBL1140284, “A three-dimensional pharmacophore model for 5-hydroxytryptamine6 (5-HT6) receptor antagonists” (J Med Chem, 2005).

Broadly, the Ki is the equilibrium dissociation constant of an inhibitor or competing ligand from its target.

5-hydroxytryptamine receptor 6, sequence (P50406 whole entry): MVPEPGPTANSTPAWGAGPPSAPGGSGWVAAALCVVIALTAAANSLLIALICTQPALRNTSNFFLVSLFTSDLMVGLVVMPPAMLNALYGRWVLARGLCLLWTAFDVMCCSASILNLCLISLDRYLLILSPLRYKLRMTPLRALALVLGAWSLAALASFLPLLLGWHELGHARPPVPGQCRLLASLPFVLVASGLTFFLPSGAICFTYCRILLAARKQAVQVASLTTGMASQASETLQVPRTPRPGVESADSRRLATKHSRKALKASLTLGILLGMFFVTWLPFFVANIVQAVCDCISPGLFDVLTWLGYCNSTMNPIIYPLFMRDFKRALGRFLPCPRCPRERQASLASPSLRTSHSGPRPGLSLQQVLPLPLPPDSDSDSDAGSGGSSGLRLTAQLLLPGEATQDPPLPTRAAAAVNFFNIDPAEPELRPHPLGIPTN

This test concerns the target 5-hydroxytryptamine receptor 6 (Homo sapiens, UniProt P50406). Nature of the test: Binding affinity for human 5-hydroxytryptamine 6 receptor.
`Cc1ccc(S(=O)(=O)n2cc3c4c(cccc42)[C@H](O)[C@@H](N(C)C)C3)cc1` showed a Ki of 7.94 nM. As for `CN(C)CCn1ccc2cc(NS(=O)(=O)c3c(Cl)nc4sccn34)ccc21`, the figure is 2 nM; as for `COc1cccc(-c2noc(-c3[nH]c4ccccc4c3CCN)n2)c1`, 1.26 nM; as for `Nc1ccc(S(=O)(=O)Nc2ccc3cc[nH]c3c2)cc1`, 1260 nM. As for `Nc1ccc(S(=O)(=O)Nc2cccc3[nH]ccc23)cc1`, the figure is 63.1 nM; as for `Cc1c(S(=O)(=O)Nc2ccc3ncc(N4CCN(C)CC4)cc3c2)sc2ccc(Cl)cc12`, 79.4 nM; as for `CCOC(=O)c1[nH]c2ccccc2c1CCN`, 20 nM. Take `COc1cccc2c(CCN)cn(S(=O)(=O)c3ccc4ccccc4c3)c12`: the inhibitory constant (Ki) was 5.01 nM. As for `COc1cc(N)cc(NS(=O)(=O)c2ccc(N)cc2)c1`, the figure is 39.8 nM; as for `CC[N+](C)(CC)CCc1cn(S(=O)(=O)c2ccc(NC(C)=O)cc2)c2ccc(OC)cc12`, 251 nM; as for `Cc1cn(S(=O)(=O)c2ccc(N)cc2)c2ccccc12`, 12.6 nM. The result for `CSc1nc2ccccn2c(=N)c1S(=O)(=O)c1ccccc1` reads 3.98 nM; that for `Nc1ccc(S(=O)(=O)Nc2cccc(N)c2)cc1`, 631 nM. For `CON1CCN(c2ccc(S(=O)(=O)c3cccc4ccccc34)cc2)CC1`, the inhibitory constant (Ki) was 0.126 nM. As for `NCc1cn(S(=O)(=O)c2ccccc2)c2ccccc12`, the figure is 3.16 nM; as for `Nc1ccc(S(=O)(=O)n2c3c(c4ccccc42)CCCC3)cc1`, 31.6 nM; as for `O=S(=O)(c1ccccc1)c1cc2c(N3CCNCC3)cccc2[nH]1`, 0.126 nM. The result for `O=S(=O)(Nc1ccc2ccn(CCN3CCCC3)c2c1)c1c(Cl)nc2sccn12` reads 50.1 nM; that for `NCc1cn(S(=O)(=O)c2ccc(N)cc2)c2ccccc12`, 6.31 nM. As for `NCCc1c[nH]c2ccc(NS(=O)(=O)c3ccc4c(Cl)cccc4c3)cc12`, the figure is 0.2 nM. For `O=S(=O)(c1ccc2ccccc2c1)n1ccc2ccc(N3CCN4C=CCC4C3)cc21` (stereo unspecified), the Ki is 0.2 nM. The result for `O=S(=O)(Nc1ccc2c(ccn2CCCN2CCCCC2)c1)c1c(Cl)nc2sccn12` reads 1000 nM; that for `Nc1ccc(S(=O)(=O)c2cc(Br)nc(Br)c2)cc1`, 50.1 nM. As for `O=S(=O)(c1cccc2ccccc12)n1ccc2ccc(C3=CCN4CCCC4C3)cc21` (stereo unspecified), the figure is 1.26 nM; as for `COc1ccc(NS(=O)(=O)c2cccc(I)c2)cc1N1CCNCC1`, 0.794 nM.

In turn, `COc1ccc2c(c1)c(CCN)cn2S(=O)(=O)c1cccc2ccccc12` showed an inhibitory constant (Ki) of 0.794 nM. The result for `CNc1cc(NS(=O)(=O)c2ccc(N)cc2)cc(NC)n1` reads 15.8 nM; that for `COc1ccc2[nH]c(-c3ccccc3)c(CCN(C)C)c2c1`, 50.1 nM. As for `COc1ccc2c(c1)c(CCN(C)C)cn2S(=O)(=O)c1ccccc1`, the figure is 2.51 nM; as for `CN(C)CCc1cn(S(=O)(=O)c2ccccc2)c2ccccc12`, 3.16 nM. The result for `Nc1ccc(S(=O)(=O)Nc2cc(N)nc(Br)c2)cc1` reads 50.1 nM.
